Data as given in patent US12433830B2, “Anti-aging compositions and methods of use thereof” (S.I.S. SHULOV INNOVATIVE SCIENCE LTD., priority 2019, dated 2025).
Where a SMILES comes first, the peptide text is derived from it. [ ]: non-standard residue; d: D form. The star is where a group is joined. pGlu = O=C1CC[C@@H](C(=O)O)N1; Octanoyl = CCCCCCCC(=O)*

Assays:
[1] = tested on: Mattek's EpiDerm™ X (EPI-606-X) reconstructed human epidermis tissue; test: Skin metabolism, full scan HRMS search for metabolites in permeation samples; format: in vitro ADME; conditions: t=4, 8, 20, 22, 24 h vs time zero; positive and negative ESI
Method: The skin metabolism of ZEP3 and ZEP3Na was also investigated. Full scan HRMS chromatograms were acquired for the samples, in both positive and negative ESI mode, in order to identify possible metabolites of the target analytes. Differential analysis between the samples through the experiment (t=4, 8, 20, 22, and 24 h) and the sample at time zero was performed. Evaluation of the fragmentation profile through MS/MS experiments was also performed in order to provide additional information.

epidermal cells [2] = test: Formation of reactive oxygen species (ROS) in epidermal cells under stress conditions; format: cell-based; conditions: stress conditions (70 mM NaCl)
epidermal cells [3] = test: Viability of epidermal cells under stress conditions; format: cell-based; conditions: stress conditions (70 mM NaCl)
[4] = rat, chemical corneal injury; cited from earlier work

metabolites identified [1]	Compound	formation of reactive oxygen species (ROS) (epidermal cells [2])	viability of epidermal cells (epidermal cells [3])	effect on ocular pain [4]
No metabolites	CCCCCCCC(=O)NCCCC[C@H](NC(=O)[C@H](Cc1c[nH]c2ccccc12)NC(=O)[C@H](CC(N)=O)NC(=O)[C@@H]1CCC(=O)N1)C(=O)O [ZEP3, pGlu-Asn-Trp-Lys(Octanoyl)-OH] ([pGlu]NWK(Octanoyl)-OH)	reduced the formation of reactive oxygen species (ROS)	increased viability of epidermal cells	
	pGlu-Asn-Trp-Thr-OH ([pGlu]NWT-OH; SMILES C[C@@H](O)[C@H](NC(=O)[C@H](Cc1c[nH]c2ccccc12)NC(=O)[C@H](CC(N)=O)NC(=O)[C@@H]1CCC(=O)N1)C(=O)O) [ZEP4]	reduced the formation of reactive oxygen species (ROS)	increased viability of epidermal cells	analgesic effect
